Source: US10842151B2, “Small molecule compound for enhancing plant stress resistance” (SHANGHAI INSTITUTES FOR BIOLOGICAL SCIENCES, CHINESE …, priority 2015, dated 2020)

Experiments:
PYL2 + HAB1 [1] = target: T1, PYL2 + HAB1 (Arabidopsis thaliana, UniProt O80992); assay: AlphaScreen experiment, PYL2 + HAB1; type: binding; conditions: number in brackets; read-out: Half maximum effect concentration EC50 (PYL2 + HAB1)
T1 construct: made in house; host or cells: E. coli BL21 (DE3)
T1 sequence (O80992 14-188 limits assumed): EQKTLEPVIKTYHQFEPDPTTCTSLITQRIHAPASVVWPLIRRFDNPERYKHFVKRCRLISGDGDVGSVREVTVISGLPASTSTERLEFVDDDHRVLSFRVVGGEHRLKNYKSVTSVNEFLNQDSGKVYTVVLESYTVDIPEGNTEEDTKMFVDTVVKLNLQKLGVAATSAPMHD
T1 sequence (Q9CAJ0 172-511 partner limits assumed): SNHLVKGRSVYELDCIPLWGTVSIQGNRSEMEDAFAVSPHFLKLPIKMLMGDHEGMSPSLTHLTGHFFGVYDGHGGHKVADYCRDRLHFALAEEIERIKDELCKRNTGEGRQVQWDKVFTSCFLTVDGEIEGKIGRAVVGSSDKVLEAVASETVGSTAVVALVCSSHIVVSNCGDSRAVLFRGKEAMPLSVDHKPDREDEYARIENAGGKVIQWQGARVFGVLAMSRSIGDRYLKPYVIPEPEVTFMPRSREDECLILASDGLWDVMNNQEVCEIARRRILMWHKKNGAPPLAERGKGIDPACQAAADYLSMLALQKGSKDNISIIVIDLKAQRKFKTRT
Method: (§1) After incubating for 1.5 hours at room temperature in the dark, it was placed into an Envision Plate Reader (available from Perkin Elmer) under the programmed AlphaScreen procedure for readings.

PYL2 + HAB1 [2] = target: T1, PYL2 + HAB1; assay: HAB1 phosphatase activity assay with PYL2, SnRK2.6 phosphorylated polypeptide substrate; type: biochemical; conditions: PYL2 receptor; same concentration as ABA
Method: (§2) HAB1 Phosphatase Activity Assay […] The reaction system was incubated at room temperature for 30 minutes, followed by a further reaction for 30 minutes after adding an 11-amono acid phosphorylated polypeptide as a substrate. The phosphorylated polypeptide consisting of amino acid 170-180 of SnRK2.6 protein kinase (sequence […]) was purchased from […] company, wherein phosphorylated […] was a known HAB1 dephosphorylation target site. After 30 minutes, chromogenic reagent (purchased from BioVision) was added and the absorbance at 650 nm was read on a microplate reader (Molecular Devices).

[3] = test system: PYR/PYL receptors (PYR1, PYL1, PYL2 and PYL7)-HAB1 complex; assay: Broad spectrum experiment on PYR/PYL receptors (HAB1 phosphatase activity); type: biochemical, Arabidopsis; conditions: 1 μM; for binding ability with PYR1/PYL1/PYL2/PYL7 compared with ABA: FIG. 1, FIG. 13
Method: as §2

[4] = test system: PYR1/PYL1/PYL2/PYL7 + HAB1; assay: AlphaScreen experiment, PYL receptor binding to HAB1; design: species or system Arabidopsis; conditions: AMX: PYR1/PYL1/PYL2/PYL7; 0720B: PYL2 receptor and PYL1 receptor
Method: as §1

soybean Williams 82 = assay: Soybean leaf transpiration experiment (thermal imaging); type: in vivo
Method: After three weeks of continuous watering, 0.05% tween-20 and corresponding concentrations of DMSO (control)/compound (+)-ABA/0918/1127 were sprayed onto the plants in a single administration with an amount of 1.2 ml/pot. Images were taken daily using the FLIR A655sc thermal imaging camera at the same time before and after spraying. The Williams 82 ecotype was used in soybean leaf transpiration experiments for compounds 0604c, 0918 and 1127 and was long-day cultured at 26° C. After the plants grew and had 3 leaves in each of 3 groups, 0.05% tween-20 and 50 μM DMSO (control)/(+)-ABA/0604c/0918/1127 compounds were sprayed in a single administration with an amount of 4 ml/pot. Images were taken daily using the FLIR A655sc thermal imaging camera at the same time before and after spraying.
(§3) Leaf transpiration experiments of soybean and cotton for compound 0720B were carried out at 26° C. with long-day lighting. 16 days and 23 days after sowing, a solution containing 0.1% tween-20 and corresponding concentration of (+)-ABA, or 0720B compound or 0.1% Tween-20 and 0.05% DMSO (control) was sprayed in an amount of 4 ml/pot. Images were taken daily using the FLIR A655sc thermal imaging camera at the same time before and after spraying.

cotton [5] = assay: Cotton leaf transpiration experiment (thermal imaging); type: in vivo; conditions: 50 μM; after two days; vs DMSO
Method: as §3

soybean = assay: Soil drought experiment, soybean; type: in vivo
Method: Only one plant was contained in each pot. All soybean plants were long-day cultured at 26° C. Watering was stopped after the plant had three leaves in each of three groups of leaves and the plants with consistent growth were selected for drought treatment. As for corn, watering was stopped during the small trumpet period for drought treatment. […] After a week, the watering was resumed. Soybeans and cotton used in leaf transpiration experiments for compound 0720B were also used for soil drought experiments. Each pot contained only one plant and was filled with the same weight of soil to reduce experimental errors. All of the soybean plants were grown at 26° C. for long-day culture. 16 days after seeding, watering was stopped and the plants with consistent growth were selected for drought treatment. […] Cotton drought experiments were similar to that of the soybean. 23 days after seeding, the watering was stopped, and the plants with consistent growth were selected for drought treatment. […] After 10 days of drought, the photos were taken.

cotton [6] = assay: Soil drought experiment, cotton; type: in vivo; conditions: 50 μM every 4 days; after 10 days of drought
Method: Soybeans and cotton used in leaf transpiration experiments for compound 0720B were also used for soil drought experiments. Each pot contained only one plant and was filled with the same weight of soil to reduce experimental errors. All of the soybean plants were grown at 26° C. for long-day culture. 16 days after seeding, watering was stopped and the plants with consistent growth were selected for drought treatment. […] Cotton drought experiments were similar to that of the soybean. 23 days after seeding, the watering was stopped, and the plants with consistent growth were selected for drought treatment. […] After 10 days of drought, the photos were taken.

PYL7 + HAB1 = target: T2, PYL7 + HAB1 (Arabidopsis thaliana, UniProt Q1ECF1); assay: AlphaScreen experiment, PYL7 + HAB1; type: binding; conditions: number in brackets; read-out: Half maximum effect concentration EC50 (PYL7 + HAB1)
T2 construct: made in house; host or cells: E. coli BL21 (DE3)
T2 sequence (Q1ECF1 1-211): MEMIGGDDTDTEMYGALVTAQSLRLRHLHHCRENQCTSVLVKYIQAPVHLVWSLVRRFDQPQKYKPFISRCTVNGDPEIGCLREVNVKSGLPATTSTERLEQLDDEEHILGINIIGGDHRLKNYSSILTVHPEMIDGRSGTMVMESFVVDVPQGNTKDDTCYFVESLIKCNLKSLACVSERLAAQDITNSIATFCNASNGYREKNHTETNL
T2 sequence (Q9CAJ0 172-511 partner limits assumed): T1 sequence (Q9CAJ0 172-511 partner limits assumed)
Method: as §1

PYR1 + HAB1 = target: T3, PYR1 + HAB1 (Arabidopsis thaliana, UniProt O49686); assay: AlphaScreen experiment, PYR1 + HAB1; type: binding; conditions: column 2; number in brackets; read-out: Half maximum effect concentration EC50 (PYR1 + HAB1)
T3 sequence (O49686 1-191): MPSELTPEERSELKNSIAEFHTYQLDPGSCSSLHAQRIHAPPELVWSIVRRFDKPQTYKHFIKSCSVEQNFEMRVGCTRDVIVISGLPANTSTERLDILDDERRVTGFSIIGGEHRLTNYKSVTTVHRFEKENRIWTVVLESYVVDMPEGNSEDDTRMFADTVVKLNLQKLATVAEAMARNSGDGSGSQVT
T3 sequence (Q9CAJ0 172-511 partner): T1 sequence (Q9CAJ0 172-511 partner limits assumed)
Method: as §1

[7] = test system: soybean GmPYL3 and GmPYL6 + Arabidopsis AtHAB1; assay: AlphaScreen experiment with soybean GmPYL receptors; type: binding; conditions: FIG. 9
Method: as §1

[8] = test system: Arabidopsis thaliana Col-0 ecotype seeds; assay: Seed germination, Col-0; type: in vivo; conditions: 1 μM
Text: (§4) Two lines of plant were sown simultaneously on a single medium of 6 cm diameter, with 15 seeds sown for each line and 4 replicates for each compound. […]

[9] = test system: pyr1;pyl1;pyl4 triple mutant seeds; assay: Seed germination, PYR/PYL triple mutant; type: in vivo, Arabidopsis thaliana; conditions: 1 μM; six days after seeding
Text: as §4

[10] = test system: Arabidopsis ABA synthesis defective mutant aba2-1; type: in vivo, Arabidopsis thaliana; conditions: 5 μM sprayed; after 4 days; vs DMSO
[11] = test system: Arabidopsis Col-0 ecotype; assay: Soil drought experiment, Arabidopsis; type: in vivo, Arabidopsis thaliana
Method: Seeds of Arabidopsis Col-0 ecotype were sterilized with NaClO and then sown on ½ MS solid medium at 4° C. for 3 days of vernalization. After 6 days of growing, the well-grown seedlings having uniform size were selected and transferred into 8×7×6 cm^3 pots. Each pot was filled with the same weight of soil and the same number of plants (six plants) was planted to reduce experimental error. All the pots were subjected to a short-day culture at 22° C. After two weeks, watering was stopped for drought treatment. […] The position of the flowerpot was changed every day during the process of drought to reduce the error caused by environmental factors. During the whole drought period, the solution was sprayed twice in total and photos were recorded regularly. The watering was resumed in about three weeks.

maize (corn) = assay: Soil drought experiment, maize; type: in vivo; conditions: 50 μM; a week of drought
Method: Only one plant was contained in each pot. All soybean plants were long-day cultured at 26° C. Watering was stopped after the plant had three leaves in each of three groups of leaves and the plants with consistent growth were selected for drought treatment. As for corn, watering was stopped during the small trumpet period for drought treatment. […] After a week, the watering was resumed.

[12] = test system: ABA-induced environmental stress-related gene expression; assay: Gene expression analysis (fluorescence quantitative PCR); type: in vivo, Arabidopsis thaliana (Col-0); conditions: one day after treatment; ABA 10 μM
Method: The whole plant or leaves were taken, and RNA extraction was carried out by using conventional methods. After reverse transcription, the fluorescence quantitative PCR was carried out. Triple biological samples were taken for each treatment which was performed twice. The ACT7 gene was used as a reference gene.

CCCN1C(=O)CC(C)c2cc(NS(=O)(=O)Cc3c(F)c(F)c(C)c(F)c3F)ccc21 (stereo not drawn) [Compound 0720B]
EC50 (PYL2 + HAB1 [1]): 30 nM | inhibition of the dephosphorylation effect of HAB1 on SnRK2.6 phosphorylated polypeptide compared with ABA (PYL2 + HAB1 [2]): significantly better than that of ABA at the same concentration | binding ability with PYR1/PYL1/PYL2/PYL7 compared with ABA [3]: significantly higher than that of ABA | PYL receptor binding affinity compared with ABA [4]: significantly superior to ABA | leaf temperature (soybean Williams 82; one day after spraying, 10 μM, 20 μM or 50 μM): significantly higher than that of plants in DMSO-sprayed control and that of plants sprayed with 50 μM ABA | leaf temperature (soybean Williams 82; two days after spraying, 0720B 20 μM or 50 μM, ABA 50 μM): significantly higher than that of the DMSO-sprayed control | leaf temperature (cotton [5]): significantly higher than that in plants sprayed with DMSO | growth after rewatering (soybean; 10 μM, 20 μM or 50 μM every 3 days, rewatered 11 days after drought): significantly better than that of the plants sprayed with DMSO (control) and the plants sprayed with 50 μM ABA | growth (cotton [6]): significantly better than that of the plants sprayed with DMSO (control) and the plants sprayed with 50 μM ABA

CCCN1C(=O)CCc2cc(NS(=O)(=O)Cc3ccc(C)c(F)c3F)ccc21 [Compound 0918]
EC50 (PYL2 + HAB1 [1]): 30 nM | EC50 (PYL7 + HAB1): 20 nM | EC50 (PYR1 + HAB1): 20 nM | binding to PYR/PYL receptors [3]: could bind with PYR1/PYL1/PYL2/PYL3/PYL4/PYL5/PYL7/PYL10 | binding ability with PYR1/PYL1/PYL2/PYL7 compared with ABA [3]: significantly higher than those of ABA | affinities for soybean GmPYL proteins compared with ABA [7]: significantly higher affinities | inhibition effect on germination of Col-0 ecotype seeds compared with control compound [8]: significantly better inhibition effect | germination of Col-0 ecotype seeds ([8]; six days after seeding): could still inhibit germination of Col-0 ecotype seeds | germination of pyr1;pyl1;pyl4 triple mutant seeds [9]: could not inhibit germination of PYR/PYL triple mutant pyr1;pyl1;pyl4 seeds | leaf temperature [10]: still higher than that in the control group | plant survival ([11]; 5 μM sprayed, 18 days after drought): still survived | drought resistance compared with compound with fewer halogen atoms (0604c) ([11]; same concentration, after 2 weeks of drought, FIG. 8c): stronger drought resistance | growth (soybean; 50 μM, a week of drought, one month after rewatering): grew significantly better than the plants sprayed with DMSO (control) and sprayed with 50 μM ABA | survival after rewatering (maize (corn)): Most of the corn sprayed with compound 0918 survived after rewatering | expression level of relevant genes compared with ABA [12]: significantly higher than that in the plants treated with 10 μM ABA
